Test results as given in patent publication US20040259184A1, “Fluorescent methods for the high-throughput quantification of tartrate-resistant acid phosphatase (TRAP)” (Pharmacia Corporation, priority 2003, published 2004).

What was measured:
[1] = tested on: TRAP activity in RAW 264.7 monocyte-macrophage cells differentiated into OCL; assay: Fluorescent per-well TRAP activity assay in RAW cells differentiated into OCL; type: cell-based; settings: for Compound amount at which decrease of TRAP fluorescence is maximal / Compound amount at which dramatic decrease of TRAP fluorescence starts / Inhibition of TRAP activity (result in words) / Effect on detection of TRAP fluorescence: day 6, FIG. 4; for Inhibition of TRAP activity (result in words): IC50's comparable to previously published data; for Effect on TRAP activity: day 6; for Effect on detection of TRAP fluorescence: up to 10.0 uM
Procedure: (§1) RAW (RAW 264.7 monocyte-macrophage) RAW (ATTC, Manassas, Va.) cells were maintained in culture using DMEM (Dulbecco's Modified Eagle Medium) media containing L-glutamine at 584 mg/L, 1% penicillin/streptomycin, and 10% FBS (fetal bovine serum). For osteoclast differentiation RAW cells were put down onto 96 well plates at a density of 1,000 cells per well in alpha MEM (Minimum Essential Medium) media containing L-glutamine at 292 mg/L, 1% penicillin/streptomycin, 10% FBS, soluble RANKL (PeproTech, Rocky Hill, N.J.) at 10 ng/ml, and M-CSF (Cell Sciences, Norwood, Mass.) at 25 ng/ml. All media were changed every two days. For experiments with compounds, the compounds were added at the time of plating the cells in differentiation media. Additionally compounds were replenished during every media change leading up to the day 6 termination of the experiment.
(§2) Media was removed and cells were fixed onto their plated surface with 4% formaldehyde (Sigma, Saint Louis, Mo.) in PBS (Phosphate Buffer Saline) solution for 20 minutes. After fixing, cells were permeablized in PBS with 0.1% Tween (Sigma, Saint Louis, Mo.) for 15 minutes. Cells were then incubated with 200 uM of ELF 97 phosphatase substrate (Molecular Probes, Eugene, Oreg.) for 15 minutes in a 3.4 mM acetate buffered solution (pH 5.0) containing 6.7 mM Tartrate (Sigma, Saint Louis, Mo.). These conditions (of slightly acidic pH and high concentrations of tartrate) discriminate TRAP activity from other phosphatases. Cells were then washed twice with PBS (pH 7.4). After the final wash, plates were immediately quantified for TRAP activity.
(§3) Quantification of TRAP TRAP activity per well was quantified on a SpetraFluor Plus (Tecan, Research Triangle Park, N.C.) using an excitation of 360 nm and an emission of 550 nm using the optimal gain function. For quantification of the number of OCL, PI (propidium iodide) (Sigma, Saint Louis, Mo.) at a final concentration of 10 ug/ml was added to the TRAP stained cells to nonspecifically stain the cells. After PI staining the 96 well plates were analyzed using an ArrayScanII (Cellomics, Pittsburgh, Pa.) on the Nuclear Translocation software. In this Nuclear Translocation software analysis, the cytoplasmic image area is not used while the nuclear image area is expanded to encompass the entire PI stained cellular area. Cell size selection was performed through nuclear size selection criteria within Channel 1 of the Nuclear Translocation software package. TRAP intensity selection was performed through total fluorescence intensity utilizing Channel 2.

[2] = tested on: OCL differentiated from RAW 264.7 monocyte-macrophage cells; assay: Automated OCL counting assay (size and TRAP-intensity selected cells, ArrayScan); type: cell-based; settings: day 6, FIG. 5
Procedure: as §1, §2, §3
The determination of differentiation into OCL is typically based upon morphological criteria along with staining for TRAP. […] Therefore, basing differentiation solely upon per well TRAP activity could lead to a false positive reading. To circumvent this limitation we developed an automated approach to quantify the number of OCL based upon the size of the cells in addition to TRAP activity. Due to the limitations of the software analyses, the size of the cells were used in place of number of nuclei as a selection criteria for OCL formation. The size of the cells typically correlates with cell fusion and the number of nuclei. Also while some single nucleated cells can also be large in size, these cells typically tend not to be TRAP positive. The data capture was performed using the Cellomics ArrayScan 11, which is an automated fluorescent microscope and plate handler. The data analyses were performed by using the Cellomic's “Nuclear Translocation” imaging analysis software.

OCL formation = settings: previously published data (Matsumoto 2000; Kumar 2001); read-out: IC50 of dose dependent inhibition of OCL formation; cited from earlier work

Row | Structure (SMILES) | Compound amount at which decrease of TRAP fluorescence is maximal [1] [µM] | Compound amount at which dramatic decrease of TRAP fluorescence starts [1] [µM] | Inhibition of TRAP activity (result in words) [1] | Compound amount at which decrease in quantity of TRAP positive cells counted starts [2] [µM] | Concentration at which decrease in TRAP positive cells counted is maximal (near zero amounts) [2] [µM] | IC50 (OCL formation) [nM] | Effect on TRAP activity [1] | Effect on detection of TRAP fluorescence [1] | Effect on number of TRAP positive cells counted ([2]; at 10.0 uM) | Effect on the number of OCL [2]
1 | C[S+]([O-])c1ccc(-c2nc(-c3ccc(F)cc3)c(-c3ccncc3)[nH]2)cc1 (stereo not drawn) [SB203580] | 10.0 | 1.0 | dose dependent inhibition of TRAP activity | 0.3 | 10.0 | – | – | – | – | –
2 | Oc1ccc(-c2nc(-c3ccc(F)cc3)c(-c3ccncc3)[nH]2)cc1 [SB202190] | 10.0 | 1.0 | dose dependent inhibition of TRAP activity | – | – | 1000 | – | – | – | –
3 | COc1cccc(-c2cc(=O)c3ccccc3o2)c1N [PD98059] | – | – | – | – | – | – | little effect | did not significantly inhibit | no significant decrease | little effect
4 | CCc1nc(-c2ccc(OC)cc2)[nH]c1-c1ccncc1 [SB202474] | – | – | – | 0.3 | 10.0 | – | little effect | did not significantly inhibit | – | little effect
